Measurements taken from US10294226B2, “Small molecule inhibitors of the JAK family of kinases” (Janssen Pharmaceutica NV, priority 2016, dated 2019).
Converted amounts (≈) assume the structure as drawn.

How the values were obtained:
[1] = In vivo intracolonic (i.c.) dosing, plasma and colon concentrations (Protocol 3); design: species or system female C57BL/6 mice; key to Plasma Concentration After i.c. Dosing, Mean: ^: Mean was not calculated as the values for all three mice were below the lower limit of quantitation; conditions: mice; for Plasma Concentration After i.c. Dosing, Mean: 5 mg/kg i.c.
Text: Plasma and colon concentration results were obtained by following Protocol 1 using venipuncture of dorsal metatarsal vein bleed for Compounds (B), (C), and Examples 6 and 11. Plasma and colon concentration results were obtained by following Protocol 2 using retro-orbital bleed for Compounds (A), and Examples 1, and 3-5 and Protocol 2 using venipuncture of the dorsal metatarsal vein for Examples 2, 7-10, and 12. Plasma and colon concentration results were obtained by following Protocol 3 for Examples 1, 3 and 4. These protocols are described below under the heading In vivo Studies.
Intracolonic (IC) dose group: Following anesthesia with isoflurane by inhalation, three non-fasted female C57BL/6 mice were administered the compound intracolonically through a small incision in the abdominal wall using a syringe and needle at a dose of 5 mg/kg as a solution in 20% HPβCD at a dose volume of 1 mL/kg. Blood samples were collected at 0.5, 2, and 4 h post dose via retro-orbital bleed. Blood samples were collected into tubes containing anticoagulant (Heparin-Na) and placed on wet ice. The plasma fraction was separated by centrifugation and frozen at −20° C. for up to 4 h and −80° C. after 4 h unless analyzed shortly after sample collection. Colon samples were collected at 4 h post dose. From 2 cm below the cecum, a 4-cm sample of the colon was dissected, cut open on the longitudinal axis, and the solid contents removed by flushing with 2 mL of saline. The colon was further washed by putting it in 5 mL of saline and shaken for 5 seconds. The colon sample was then patted dry, weighed, and homogenized as 1 part tissue (g) to 4 parts HPLC grade water (mL). Concentrations of the compound in plasma and colon homogenate were determined using a qualified liquid chromatography-triple quadrupole mass spectrometry (LC-MS/MS) method. This protocol was used to evaluate IC dosing of the following test compounds: Examples 1, 3, and 4.

MDCK-MDR1 cell line = assay: MDCK-MDR1 permeability assay; format: in vitro ADME; conditions: for MDCK-MDR1 Papp(A-B): without elacridar; for MDCK-MDR1 Papp(B-A): basolateral to apical; for Papp(B-A)/Papp(A-B) efflux ratio: MDCK-MDR1, @ 5 μM
Method: Permeability measurements were conducted according to the Cyprotex protocol using the MDCK-MDR1 cell line obtained from the NIH (Rockville, Md., USA). […] The cells in this assay form a cohesive sheet of a single cell layer filing the surface area of the culture dish, also known as a confluent monolayer, and on day four the test compound was added to the apical side of the membrane and the transport of the compound across the monolayer was monitored over a time period of 60 min.
Test compounds were dissolved in DMSO at a concentration of 10 mM. The dosing solutions were prepared by diluting test compound with assay buffer (Hanks Balanced Salt Solution), pH 7.4, at a final concentration of 5 μM. For assessment of apical to basolateral (“A-B”) permeability, buffer was removed from the apical compartment and replaced with test compound dosing solution with or without the permeability glycoprotein (“PgP”, “P-gP”, “Pgp” or “P-gp”) inhibitor elacridar (2 μM). For assessment of basolateral to apical (“B-A”) permeability, buffer was removed from the companion plate and replaced with test compound dosing solution. Incubations were carried out in duplicate at 37° C. in an atmosphere of 5% CO2 with a relative humidity of 95%. […] After incubation for 60 minutes, apical and basolateral samples were diluted and test compounds quantified by LC/MS/MS using an 8-point calibration in the range 0.0039 to 3 μM with appropriate dilution of the samples (receiver dilution factor=1; donor and C0 dilution factor=10). The permeability coefficient (Papp) for each compound was calculated from the following equation: Papp=(dQ/dt)/(C0×S), where dQ/dt is the rate of permeation of the drug across the cells, C0 is the donor compartment concentration at time zero, and S is the area of the cell monolayer.
The percent recovery was measured for all incubation conditions.
Papp(A-B) gives an indication of permeation extent across the cells in this assay, which is envisaged to model the transcellular transport across Pgp-expressing cells, such as Pgp-expressing gastrointestinal tract cells.
The integrity of each monolayer was monitored by examining the permeation of lucifer yellow by fluorimetric analysis.

physchem = conditions: pH 6.5, fassif, thermodynamic from solid

| Structure (SMILES) | Plasma Concentration After i.c. Dosing, Mean ([1]; Time = 2 h) | Plasma Concentration After i.c. Dosing, Mean ([1]; Time = 4 h) | systemic exposure after i.c. dosing [1] | MDCK-MDR1 Papp(A-B) (MDCK-MDR1 cell line; @ 5 μM, apical to basolateral) | MDCK-MDR1 Papp(B-A) (MDCK-MDR1 cell line; @ 5 μM) | Papp(B-A)/Papp(A-B) efflux ratio (MDCK-MDR1 cell line) | solubility (physchem) | MDCK-MDR1 P^eapp(A-B) (MDCK-MDR1 cell line; @ 5 μM, apical to basolateral, with P-gp inhibitor elacridar (2 μM)) |
| --- | --- | --- | --- | --- | --- | --- | --- | --- |
| CC(C)(O)CNC(=O)Cc1nc2cnc3[nH]ccc3c2n1[C@H]1CC[C@H](CC#N)CC1 [Ex. 1, 2-(1-((1r,4r)-4-(Cyanomethyl)cyclohexyl)-1,6-dihydroimidazo[4,5-d]pyrrolo[2,3-b]pyridin-2-yl)-N-(2-hydroxy-2-methylpropyl)acetamide] | ^ | ^ | low systemic exposures | 0.4 10^−6 cm/sec | 1.1 10^−6 cm/sec | 3.3 | 387 µM (≈ 158 µg/mL) | – |
| N#CC[C@H]1CC[C@H](n2c(CC(=O)NCC3CC3)nc3cnc4[nH]ccc4c32)CC1 [Ex. 3, 2-(1-((1r,4r)-4-(Cyanomethyl)cyclohexyl)-1,6-dihydroimidazo[4,5-d]pyrrolo[2,3-b]pyridin-2-yl)-N-(cyclopropylmethyl)acetamide] | ^ | ^ | low systemic exposures | < 0.5 10^−6 cm/sec | 16 10^−6 cm/sec | > 33 | – | – |
| N#CCCNC(=O)Cc1nc2cnc3[nH]ccc3c2n1[C@H]1CC[C@H](CC#N)CC1 [Ex. 4, N-(2-Cyanoethyl)-2-(1-((1r,4r)-4-(cyanomethyl)cyclohexyl)-1,6-dihydroimidazo[4,5-d]pyrrolo[2,3-b]pyridin-2-yl)acetamide] | – | ^ | low systemic exposures | – | – | – | – | – |
| N#CC[C@H]1CC[C@H](n2c(CC(=O)NC3CCOCC3)nc3cnc4[nH]ccc4c32)CC1 [Ex. 5, 2-(1-((1r,4r)-4-(Cyanomethyl)cyclohexyl)-1,6-dihydroimidazo[4,5-d]pyrrolo[2,3-b]pyridin-2-yl)-N-(tetrahydro-2H-pyran-4-yl)acetamide] | – | – | – | < 0.5 10^−6 cm/sec | 2.1 10^−6 cm/sec | > 4.5 | 198 µM (≈ 83.3 µg/mL) | 0.5 10^−6 cm/sec |
| N#CC[C@H]1CC[C@H](n2c(CC(=O)NCC3CCOCC3)nc3cnc4[nH]ccc4c32)CC1 [Ex. 6, 2-(1-((1r,4r)-4-(Cyanomethyl)cyclohexyl)-1,6-dihydroimidazo[4,5-d]pyrrolo[2,3-b]pyridin-2-yl)-N-((tetrahydro-2H-pyran-4-yl)methyl)acetamide] | – | – | – | – | 2.6 10^−6 cm/sec | > 8.7 | – | – |
| CC(C)(C#N)CNC(=O)Cc1nc2cnc3[nH]ccc3c2n1[C@H]1CC[C@H](CC#N)CC1 [Ex. 7, N-(2-Cyano-2-methylpropyl)-2-(1-((1r,4r)-4-(cyanomethyl)cyclohexyl)-1,6-dihydroimidazo[4,5-d]pyrrolo[2,3-b]pyridin-2-yl)acetamide] | – | – | – | – | – | – | 81 µM (≈ 33.8 µg/mL) | – |
| N#CCC12CCC(NC(=O)Cc3nc4cnc5[nH]ccc5c4n3[C@H]3CC[C@H](CC#N)CC3)(CC1)C2 [Ex. 10, N-(4-(Cyanomethyl)bicyclo[2.2.1]heptan-1-yl)-2-(1-((1r, 4r)-4-(cyanomethyl)cyclohexyl)-1,6-dihydroimidazo[4,5-d]pyrrolo[2,3-b]pyridin-2-yl)acetamide] | – | – | – | – | – | – | 359 µM (≈ 169 µg/mL) | – |
